# Experimental data as given in patent publication US8092974B2, “Production method of toner for developing electrostatic image” (Zeon Corporation, priority 2006, dated 2012).
# Assay: Average number of small diameter microparticles per colored resin particle (SEM count after polymerization)
# Conditions: aqueous dispersion after polymerization process; SEM 5,000 magnification, 25 particles
# Text: The average number of small diameter microparticles per colored resin particle is a value calculated in such a manner that aqueous dispersion containing colored resin particles after polymerization process is collected and prepared to be a sample for measurement with a scanning electron microscopy (SEM); the prepared sample is photographed at 5,000 magnification in five fields of view by means of the scanning electron microscopy; five colored resin particles are randomly selected in each image; the number of small diameter microparticles observed on the surface of 25 colored resin particles in total is counted; and the average number of small microparticles per colored resin is calculated therefrom.
# The number of small diameter microparticles per colored resin particle can be measured by means of a commercially available scanning electron microscopy. For example, it can be measured by means of a field emission scanning electron microscopy (product name: S-4700; manufactured by: Hitachi, Ltd.). […]
# The sample was randomly photographed in five fields of view, and five colored resin particles were randomly selected in each image to count the number of small diameter microparticles observed on the surface of 25 colored resin particles in total. The average number of small diameter microparticles per colored resin particle was calculated therefrom.
structure (smiles),measurement,value
"Oc1ccc(O)cc1 [A, Hydroquinone]",Average number of small diameter microparticles per colored resin particle,weak
